Measurements: BindingDB's records for doi:10.7270/Q2W957K6 (Pcmd, 2008)
Counter-ions that a name gives are not always drawn.

Target: Coagulation factor XI (Homo sapiens, UniProt P03951)
Test: human FXIa inhibitor potency, dose response, biochemical (AID 679)

Sequence of Coagulation factor XI (P03951 19-387 limits assumed): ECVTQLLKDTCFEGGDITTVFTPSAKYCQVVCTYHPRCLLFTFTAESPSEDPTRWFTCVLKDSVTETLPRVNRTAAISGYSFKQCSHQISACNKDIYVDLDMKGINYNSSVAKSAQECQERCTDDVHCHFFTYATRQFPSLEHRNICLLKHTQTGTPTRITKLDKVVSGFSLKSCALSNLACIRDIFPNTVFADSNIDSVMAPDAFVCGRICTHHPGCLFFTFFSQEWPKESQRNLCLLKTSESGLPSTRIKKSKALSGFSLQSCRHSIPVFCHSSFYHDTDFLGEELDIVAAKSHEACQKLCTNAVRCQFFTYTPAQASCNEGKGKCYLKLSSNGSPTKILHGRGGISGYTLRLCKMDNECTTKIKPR
Sequence of Coagulation factor XI (P03951 388-625 limits assumed): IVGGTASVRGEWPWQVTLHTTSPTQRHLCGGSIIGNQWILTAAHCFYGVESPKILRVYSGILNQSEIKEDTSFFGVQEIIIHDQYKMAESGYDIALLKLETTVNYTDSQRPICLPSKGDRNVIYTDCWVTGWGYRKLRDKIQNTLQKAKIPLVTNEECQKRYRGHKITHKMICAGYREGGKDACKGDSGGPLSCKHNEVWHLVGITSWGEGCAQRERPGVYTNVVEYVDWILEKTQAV

`O=c1nc(-c2ccccc2)c2cc(Cl)ccc2[nH]1` and `COc1ccc2c(=O)cc(-c3ccccc3)n(C)c2c1` [7-methoxy-1-methyl-2-phenyl-4-quinolinone] cannot be ordered by IC50: > 50 µM for the first, > 50 µM for the second.

Compared with `O=S(=O)(Nc1cccc2nsnc12)c1ccccc1`, `O=C(NCc1ccccc1)C1CCCN(S(=O)(=O)c2cccc3nonc23)C1` (stereo not drawn) [1-(2,1,3-benzoxadiazol-4-ylsulfonyl)-N-benzylpiperidine-3-carboxamide] is higher in IC50: 9.3 µM for the first, > 50 µM for the second.

Compared with `COc1ccc(S(=O)(=O)N2CCC(C(=O)N3CCc4ccccc4C3)CC2)cc1Cl`, `CN(CCOc1ccccc1)c1ccc(S(=O)(=O)N2CCCCC2)cn1` [N-methyl-N-(2-phenoxyethyl)-5-piperidin-1-ylsulfonylpyridin-2-amine] is higher in IC50: 6.26 µM for the first, > 50 µM for the second. The first is the more potent here.

`COc1ccc(Cn2nnnc2C(c2ccccc2Cl)N2CCC(C(N)=O)CC2)cc1` (stereo not drawn) and `CCCc1nc2ccccc2c(=O)n1-c1ccc(OC)cc1` [3-(4-Methoxy-phenyl)-2-propyl-3H-quinazolin-4-one] cannot be ordered by IC50: > 50 µM for the first, > 50 µM for the second.

`O=C(NC(C(=O)c1ccccc1)n1c(=O)cc[nH]c1=S)c1ccccc1` (stereo not drawn) and `O=C(c1cccc2ccccc12)n1nnc2ccccc21` [SMR000118701] cannot be ordered by IC50: > 50 µM for the first, > 50 µM for the second.

`CNCCCc1ccccc1` and `Cc1cnc(C(=O)OCC(=O)NCc2ccccc2)cn1` [[2-(benzylamino)-2-oxoethyl] 5-methylpyrazine-2-carboxylate] cannot be ordered by IC50: > 50 µM for the first, > 50 µM for the second.

`COc1ccc(CC(=O)NCc2ccc3c(c2)OCO3)cc1` and `CCOc1ccc(S(=O)(=O)NCc2ccc(OC)cc2)c2cccnc12` [MLS000521584] cannot be ordered by IC50: > 50 µM for the first, > 50 µM for the second.

Compared with `Cc1ccc(NC(=O)CCn2cccc2)cc1`, `Cc1ccc(C(=O)n2nnc3ccccc32)cc1` [MLS000527467] is lower in IC50: > 50 µM for the first, 2.39 µM for the second.

`CCCC1CCc2c(sc(N)c2C(N)=O)C1` (stereo not drawn) and `CCc1ccc(NC(=O)Cn2nc(C(F)(F)F)c3c2CCC3)cc1` [N-(4-Ethyl-phenyl)-2-(3-trifluoromethyl-5,6-dihydro-4H-cyclopentapyrazol-1-yl)-acetamide] cannot be ordered by IC50: > 50 µM for the first, > 50 µM for the second.

`CCN(CC)CCNC(=O)C(C)c1nn(C)c(=O)c2ccccc12` (stereo not drawn) and `CCn1nc(CC(=O)Nc2nnc(CC(=O)N3CCCC3)s2)c2ccccc2c1=O` [2-(3-ethyl-4-oxo-1-phthalazinyl)-N-[5-[2-oxo-2-(1-pyrrolidinyl)ethyl]-1,3,4-thiadiazol-2-yl]acetamide] cannot be ordered by IC50: > 50 µM for the first, > 50 µM for the second.

`N#Cc1cc2c(nc1SCC(=O)Nc1sc3c(c1C#N)CCC3)CCC2` and `Cn1c(SCC(=O)NC2CCCCC2)nnc1-c1cccc(N)c1` [2-[5-(3-Amino-phenyl)-4-methyl-4H-[1,2,4]triazol-3-ylsulfanyl]-N-cyclohexyl-acetamide] cannot be ordered by IC50: > 50 µM for the first, > 50 µM for the second.

`OCCCn1c(-c2ccccc2)nc(=S)c2c1CCCC2` and `CCCC(=O)n1nc(-c2ccccc2)nc1SC` [SMR000113998] cannot be ordered by IC50: > 50 µM for the first, > 50 µM for the second.

First: O=C(CCSc1nnc2ccc3ccccc3n12)Nc1ccc(F)cc1
Second: O=C(Nc1ccccc1C(=O)N1CCOCC1)c1ccc(F)cc1 [4-fluoro-N-[2-[4-morpholinyl(oxo)methyl]phenyl]benzamide]
The IC50 of the first is higher: > 50 µM for the first, 21.4 µM for the second.

`N#Cc1ccc(NC(=O)COC(=O)CNC(=O)C2CCCCC2)cc1` and `CC(C)c1nc2ccc(NC(=O)C3CCCCC3)cc2[nH]1` [Cyclohexanecarboxylic acid (2-isopropyl-1H-benzoimidazol-5-yl)-amide] cannot be ordered by IC50: > 50 µM for the first, > 50 µM for the second.

`Cc1ccc(C(=O)n2nc(-c3cccnc3)nc2N)cc1` [1-(4-methylbenzoyl)-3-(3-pyridinyl)-1H-1,2,4-triazol-5-amine] and `O=C(c1ccc(F)cc1)N1CCN(C(=O)c2cccnc2)CC1` [SMR000140978] cannot be ordered by IC50: > 50 µM for the first, > 50 µM for the second.

Compared with `O=C(c1cn(-c2ccccc2)nc1-c1ccncc1)n1nnc2ccccc21` [1-{[1-phenyl-3-(4-pyridinyl)-1H-pyrazol-4-yl]carbonyl}-1H-1,2,3-benzotriazole], `O=c1c(-c2cc3ccccc3o2)[n+]([O-])c2ccccc2n1OCc1ccccn1` [3-(1-benzofuran-2-yl)-1-(2-pyridinylmethoxy)-2(1H)-quinoxalinone 4-oxide] is higher in IC50: 0.707 µM for the first, > 50 µM for the second. The first is the more potent here.

`CCC(CO)NCc1ccc(OC2CCCC2)cc1` (stereo not drawn) [2-[(4-cyclopentyloxyphenyl)methylamino]butan-1-ol;hydrochloride] and `Cc1ccc(NS(=O)(=O)c2ccc(OCC(=O)N3CCOCC3)cc2)cc1` [N-(4-methylphenyl)-4-(2-morpholin-4-yl-2-oxidanylidene-ethoxy)benzenesulfonamide] cannot be ordered by IC50: > 50 µM for the first, > 50 µM for the second.

`Cc1ccccc1C(=O)N=c1sccn1C` [2-methyl-N-(3-methyl-1,3-thiazol-2-ylidene)benzamide] and `Cc1c(O)ccc(C(=O)CN2C(=O)c3ccccc3C2=O)c1O` [MLS000050535] cannot be ordered by IC50: > 50 µM for the first, > 50 µM for the second.

`O=c1cccc2n1CC1CC2CN(S(=O)(=O)c2ccccc2)C1` (stereo not drawn) [3-Benzenesulfonyl-1,2,3,4,5,6-hexahydro-1,5-methano-pyrido[1,2-a][1,5]diazocin-8-one] and `O=S(=O)(Cc1ccccc1)N1CCC(c2nc(-c3cccs3)no2)CC1` [MLS000027341] cannot be ordered by IC50: > 50 µM for the first, > 50 µM for the second.

Compared with `COc1cc(OC)cc(-c2nnc(SCc3cccc(C(=O)O)c3)o2)c1` [3-[[5-(3,5-dimethoxyphenyl)-1,3,4-oxadiazol-2-yl]sulfanylmethyl]benzoic acid], `COc1cccc(C(=O)N(Cc2ccccc2)Cc2cc3cc4c(cc3nc2O)OCCO4)c1` [MLS000123157] is lower in IC50: > 50 µM for the first, 10.4 µM for the second.

First: O=C(CCCN1C(=O)c2ccccc2C1=O)NCC1CCCO1 (stereo not drawn) [4-[1,3-bis(oxidanylidene)isoindol-2-yl]-N-(oxolan-2-ylmethyl)butanamide]
Second: CC1=C(C(=O)OC(C)C)C(c2coc3ccccc3c2=O)C2C(=O)CCCC2=N1 (stereo not drawn) [MLS000533594]
The IC50 of the first is lower: 14.6 µM for the first, > 50 µM for the second. The first is the more potent here.

`COc1cc(OC)c2c(N)c(C#N)c(C(F)(F)C(F)(F)F)nc2c1` [4-azanyl-5,7-dimethoxy-2-[1,1,2,2,2-pentakis(fluoranyl)ethyl]quinoline-3-carbonitrile] and `N#Cc1c(N)nc2c(c1N)=C(N)SC1=NC(=O)CC(c3ccccc3Cl)C=21` (stereo not drawn) [SMR000147835] cannot be ordered by IC50: > 50 µM for the first, > 50 µM for the second.

`COc1ccc(OCCSc2nc[nH]n2)cc1` [5-[2-(4-methoxyphenoxy)ethylsulfanyl]-1H-1,2,4-triazole] and `COc1ccc(OCC(=O)Nc2cc(-c3nn(C)c(=O)c4ccccc34)ccc2OC)cc1` [N-[2-Methoxy-5-(3-methyl-4-oxo-3,4-dihydro-phthalazin-1-yl)-phenyl]-2-(4-methoxy-phenoxy)-acetamide] cannot be ordered by IC50: > 50 µM for the first, > 50 µM for the second.

`Cc1cc(=O)[nH]c(-n2[nH]c(C)cc2=O)n1` [6-methyl-2-(3-methyl-5-oxo-2,5-dihydro-1H-pyrazol-1-yl)-4(3H)-pyrimidinone] and `Cc1cc(C)n2nc(C(=O)Nc3ccc4c(c3)OCO4)cc2n1` [SMR000144727] cannot be ordered by IC50: > 50 µM for the first, > 50 µM for the second.

`CCOc1cccc2cc(C(N)=O)/c(=N/Cc3ccccc3)oc12` [8-ethoxy-2-(phenylmethyl)imino-chromene-3-carboxamide] and `Cc1c(NC(=O)c2cc3ccccc3o2)c(=O)n(-c2ccccc2)n1C` [MLS000556522] cannot be ordered by IC50: > 50 µM for the first, > 50 µM for the second.

`CCc1ccc(CC2SC(=C(C#N)C(C)=O)NC2=O)cc1` (stereo not drawn) [(2E)-2-[5-[(4-ethylphenyl)methyl]-4-oxo-2-thiazolidinylidene]-3-oxobutanenitrile] and `CCc1c(O)nc(SCC(=O)NC(C)(C)C)n(-c2ccccc2)c1=O` [SMR000147407] cannot be ordered by IC50: > 50 µM for the first, > 50 µM for the second.

`CCOC(=O)c1c(C)n(Cc2ccccc2)c2ccc(OCC(O)Cn3nc(C)cc3C)cc12` (stereo not drawn) [MLS000121399] and `Cc1cc(NC(=O)COC(=O)c2c(C)nn(Cc3ccccc3)c2C)no1` [[2-[(5-methyl-1,2-oxazol-3-yl)amino]-2-oxoethyl] 1-benzyl-3,5-dimethylpyrazole-4-carboxylate] cannot be ordered by IC50: > 50 µM for the first, > 50 µM for the second.

First: O=C(Oc1ccc2c(=O)c(Cl)coc2c1)c1cccnc1 [MLS000523505]
Second: O=C(Oc1cccc(-n2cnnn2)c1)c1ccco1 [SMR000117840]
The IC50 of the first is higher: > 50 µM for the first, 4.06 µM for the second. The second is the more potent here.

Going from `CCC1(c2ccccc2)C(=O)N(C)C(=O)N(C)C1=O` [MLS000532164] to `CCn1c(SCC(=O)c2[nH]c(C)c(C(C)=O)c2C)nnc1-c1ccccc1` [SMR000153346], the IC50 falls from > 50 µM to 7.44 µM. The second is the more potent here.

First: C=CCn1c(=O)c2c(nc(Br)n2Cc2ccccc2Cl)n(C)c1=O [MLS000555959]
Second: COc1ccccc1-n1cnnc1SCC(=O)Nc1nc(C)c(Cl)cc1Cl [SMR000153344]
The IC50 of the first is 16-fold lower: 0.638 µM for the first, 10.2 µM for the second. The first is the more potent here.

`CCOc1cc(S(=O)(=O)N(Cc2ccccc2)Cc2ccccc2)c(OCC)cc1-n1cnnn1` [N,N-Dibenzyl-2,5-diethoxy-4-tetrazol-1-yl-benzenesulfonamide] and `CCCN(CCC)C(C(=O)Nc1cccc(OC)c1)c1ccccc1` (stereo not drawn) [SMR000064514] cannot be ordered by IC50: > 50 µM for the first, > 50 µM for the second.

`Cn1nnnc1SCC(=O)N(C1CCCCC1)C1CCCCC1` [N,N-dicyclohexyl-2-[(1-methyl-5-tetrazolyl)thio]acetamide] and `Cc1ccc(N(C(=O)c2ccccn2)C2(C(=O)NC3CCCC3)CCCCC2)cc1` [N-[1-(cyclopentylcarbamoyl)cyclohexyl]-N-(4-methylphenyl)pyridine-2-carboxamide] cannot be ordered by IC50: > 50 µM for the first, > 50 µM for the second.

First: CCC1CC2CC(NC(C)=O)C1C2 (stereo not drawn) [N-(5-ethyl-3-bicyclo[2.2.1]heptanyl)ethanamide]
Second: COC(=O)c1sc(NC(=O)CC(C)C)c(C(=O)OC)c1C [SMR000141040]
The IC50 of the first is lower: 0.588 µM for the first, > 50 µM for the second.

`Cc1ccc(-c2csc(N3CCC(NS(=O)(=O)c4ccc5c(c4)OCCO5)CC3)n2)cc1` [N-[1-[4-(4-methylphenyl)-1,3-thiazol-2-yl]piperidin-4-yl]-2,3-dihydro-1,4-benzodioxine-6-sulfonamide] and `CCOC(=O)N=S(=O)(Oc1ccc([N+](=O)[O-])cc1)c1ccccc1` (stereo not drawn) [N-[(4-nitrophenoxy)-oxo-phenyl--sulfanylidene]carbamic acid ethyl ester] cannot be ordered by IC50: > 50 µM for the first, > 50 µM for the second.

Compared with `Cc1cccc(NC(=O)c2snc3c(=O)[nH]cnc23)c1` [SMR000000702], `COC(=O)C(Cc1c[nH]c2ccccc12)NC(C)=O` (stereo not drawn) [SMR000121078] is lower in IC50: > 50 µM for the first, 6.69 µM for the second.

Compared with `COCC/N=C1\Sc2nc3c(C)cccc3cc2CN1Cc1ccco1` [SMR000122349], `COc1cc(C=c2sc3n(c2=O)CCCN=3)ccc1O` [SMR000126740] is higher in IC50: 0.745 µM for the first, > 50 µM for the second. The first is the more potent here.

`CNC(=O)COC(=O)c1[nH]c(C)c(C(C)=O)c1C` [SMR000152883] was tested, and the IC50 was > 50 µM.
